{"source": "patent US9133230B2", "about": "“Hydrazone derivatives having potent antitumor activity toward multi-drug resistant tumor cells” (THE UNITED STATES OF AMERICA AS REPRESENTED BY THE …, priority 2011, dated 2015)", "format_in_all_cases": "cell-based", "key": {"[1]": {"system": "human myelogenous leukemia K562", "assay": "MTS cytotoxicity assay, K562", "conditions": "48 h incubation", "method": "(§1) In order to obtain information about the growth-inhibiting action of hydrazones reported in the present invention on tumor cells, growth inhibition was assessed for the following human tumor cell lines: human myelogenous leukemia K562, human cervical adenocarcinoma HeLa, human colon adenocarcinoma Caco-2, human colon carcinoma HT-29, human colon carcinoma HCT-15, and human breast carcinoma MCF-7.\n(§2) The K562, HeLa, HT-29, HCT-15, Caco-2, and MCF-7 cell lines were obtained from the American type Culture Collection (ATCC, Manassas, Va.). K562 cells were maintained in RPMI 1640 medium (Gibco/Life Technologies, Gaithersburg, Md.) containing 10% heat-inactivated fetal bovine serum (FBS) (Atlanta Biologicals, Atlanta, Ga.) and 10000 U/L penicillin and 50 mg/L streptomycin. HeLa, HT-29, HCT-15, Caco-2 and MCF-7 cells were maintained in MEM with Earl's balanced salts, 10% FBS, penicillin, and streptomycin as above. Logarithmically growing HT-29, Caco-2, and MCF-7 cells were incubated with 0.05% trypsin containing 1 mM EDTA at 37° C. for about 5 min until cells were nonadherent and formed a single cell suspension. Trypsin activity was neutralized by adding 20-fold excess of the serum-containing medium. Cells were cultured at 37° C. in an atmosphere of air and 5% CO2.\n(§3) Cytotoxicity assays were conducted by tetrazolium reduction of 3-(4,5-dimethylthiazol-2-yl)-5-(3-carboxymethoxyphenyl)-2-(4-sulfophenyl)-2H-tetrazolium (MTS) with N-methylphenazonium methyl sulfate (PMS) (CellTiter Assay, Promega, Madison, Wis.). Logarithmically growing cells were plated in 0.1 mL aliquots in 96-well microtiter plates. Cells were plated at an initial density of about 5000 cells/mL and allowed to acclimatize for 24 h. Cell suspensions were treated with various dilutions of compounds in triplicate, mixed well, and allowed to incubate for 48 h at 37° C. in an atmosphere of air and 5% CO2. To the cell suspension was added 20 μL of tetrazolium reagent, the mixture was incubated for 2 h at 37° C. in an atmosphere of air and 5% CO2, and absorbance at 490 nm was read by microplate reader. Control plates with serial dilutions of cell types were counted as a control for the assay. In all cases, controls indicated a linear response versus cell number, R^2≧0.99."}, "[2]": {"system": "human cervical adenocarcinoma HeLa", "assay": "MTS cytotoxicity assay, HeLa", "conditions": "48 h incubation", "method": "as §1, §2, §3"}, "[3]": {"system": "human colon carcinoma HT-29", "assay": "MTS cytotoxicity assay, HT-29", "conditions": "48 h incubation", "method": "as §1, §2, §3"}, "[4]": {"system": "human colon carcinoma HCT-15", "assay": "MTS cytotoxicity assay, HCT-15", "conditions": "48 h incubation", "method": "as §1, §2, §3"}, "[5]": {"system": "human colon adenocarcinoma Caco-2", "assay": "MTS cytotoxicity assay, Caco-2", "conditions": "48 h incubation", "method": "as §1, §2, §3"}, "[6]": {"system": "human breast carcinoma MCF-7", "assay": "MTS cytotoxicity assay, MCF-7", "conditions": "48 h incubation", "method": "as §1, §2, §3"}, "[7]": {"system": "leukemia cell lines", "assay": "NCI 60 human tumor cell line screen, leukemia", "conditions": "arithmetic mean of two to nine cancer cell lines, read-out: Inhibitory concentration GI50, leukemia", "source_text": "(§4) Selected compounds were submitted for testing in the organ-specific panel of human tumor cell lines at the National Cancer Institute, Bethesda, Md. This screen utilized 60 human tumor cell lines, representing leukemia, melanoma, and cancers of the lung, colon, brain, ovary, kidney, prostate, and breast (Boyd, M. R., “Status of the NCl preclinical antitumor drug discovery screen”. In Principles and practice of oncology updates; De Vita, V. T., Jr. Hellman, S., Rosenberg, S. A., Eds.; Lippincott: Philadelphia, Pa., 1989; Vol. 3, pp 1-12).\n(§5) The MG MID value is the average of the GI50 values for all the cell lines tested for drug concentrations in the range of 10^−4-10^−8 M (See website domain: dtp.nci.nih.gov/dtp)."}, "[8]": {"system": "nonsmall cell lung cancer cell lines", "assay": "NCI 60 human tumor cell line screen, NSCL", "conditions": "arithmetic mean of two to nine cancer cell lines, read-out: Inhibitory concentration GI50, NSCL", "source_text": "as §4, §5"}, "[9]": {"system": "colon cancer cell lines", "assay": "NCI 60 human tumor cell line screen, colon", "conditions": "arithmetic mean of two to nine cancer cell lines, read-out: Inhibitory concentration GI50, colon", "source_text": "as §4, §5"}, "[10]": {"system": "CNS cancer cell lines", "assay": "NCI 60 human tumor cell line screen, CNS", "conditions": "arithmetic mean of two to nine cancer cell lines, read-out: Inhibitory concentration GI50, CNS", "source_text": "as §4, §5"}, "[11]": {"system": "melanoma cell lines", "assay": "NCI 60 human tumor cell line screen, melanoma", "conditions": "arithmetic mean of two to nine cancer cell lines, read-out: Inhibitory concentration GI50, melanoma", "source_text": "as §4, §5"}, "[12]": {"system": "ovarian cancer cell lines", "assay": "NCI 60 human tumor cell line screen, ovarian", "conditions": "arithmetic mean of two to nine cancer cell lines, read-out: Inhibitory concentration GI50, ovarian", "source_text": "as §4, §5"}, "[13]": {"system": "renal cancer cell lines", "assay": "NCI 60 human tumor cell line screen, renal", "conditions": "arithmetic mean of two to nine cancer cell lines, read-out: Inhibitory concentration GI50, renal", "source_text": "as §4, §5"}, "[14]": {"system": "prostate cancer cell lines", "assay": "NCI 60 human tumor cell line screen, prostate", "conditions": "arithmetic mean of two to nine cancer cell lines, read-out: Inhibitory concentration GI50, prostrate", "source_text": "as §4, §5"}, "[15]": {"system": "breast cancer cell lines", "assay": "NCI 60 human tumor cell line screen, breast", "conditions": "arithmetic mean of two to nine cancer cell lines, read-out: Inhibitory concentration GI50, breast", "source_text": "as §4, §5"}, "[16]": {"system": "60 human tumor cell lines", "assay": "NCI 60 human tumor cell line screen, all cell lines", "source_text": "as §4, §5"}, "[17]": {"system": "HL60", "assay": "MTS cytotoxicity on MDR tumor cells, HL60", "conditions": "Vincristine (VCR) sensitive, 72 hr incubation"}, "[18]": {"system": "HL60-VCR", "assay": "MTS cytotoxicity on MDR tumor cells, HL60-VCR", "conditions": "Vincristine (VCR) resistant, 72 hr incubation"}, "[19]": {"system": "human colorectal carcinoma HT29", "assay": "Western blot of signal transduction pathways in HT29 cells", "conditions": "HT29, IC50 dose", "method": "The newly synthesized hydrazones RPC038, RPC042, and RPC046 had shown anti-tumor activity against 60 human cancer cell lines panel of the National Cancer Institute and on multi-drug resistant cell lines. The present studies were conducted to evaluate their action on signal transduction pathways in human colorectal carcinoma HT29. All the three compounds were examined at their IC50 doses.\nHuman colorectal carcinoma HT29 cells were obtained from the National Cancer Institute, Bethesda, Md., USA, and maintained in 5% CO2 at 37° C. in minimum essential media (Life Technologies, Inc., Grand Island, N.Y., USA) supplemented with 1% penicillin, streptomycin (Invitrogen, Carlsbad, Calif., USA), and 10% fetal bovine serum for optimal growth. HT29 cells (1×10^6) were plated in […], and 24 h later, fresh media was added and treated with the RPC038, RPC042 and RPC046 for indicated time points (2, 4, 8, 16 and 24 h). The cells were then washed with cold phosphate buffered saline (PBS) and taken in 1 ml PBS on ice and centrifuged at 4° C. The pellet was resuspended in appropriate volumes of radio immunoprecipitation assay buffer with protease inhibitor, kept on ice for 45 min and subsequently centrifuged at 4° C. An aliquot of supernatant (protein extract) was used to estimate the protein concentration. An aliquot of protein extract (40 μg) was subjected to Western blot analysis on a 12% polyacrylamide gel and transferred to nitrocellulose membrane. Blots were blocked, incubated with primary anti-pMEK, pERK, pJNK, pcjun, ERK, JNK, Cjun, Caspase-8, Caspase-6, PARP cleavage, or GAPDH antibodies (Cell Signaling Technology, Danvers, Mass.) and then conjugated with a secondary anti-mouse or an anti-rabbit horseradish […] antibody, and detected by ChemiDoc™ XRS+ System with Image Lab™ Software."}, "[20]": {"system": "human colorectal carcinoma HT29", "assay": "Annexin-V FACS analysis of apoptosis", "conditions": "FIGS. 3 and 4, treated versus control cells", "method": "This activation was through ERK signaling and not through JNK signaling, resulting in PARP cleavage after 16 h. […] Activation of NFkB (p50) was also observed following treatment with these compounds."}, "[21]": {"system": "human colorectal carcinoma HT29", "assay": "Western blot of signal transduction pathways in HT29 cells", "conditions": "HT29, IC50 dose", "remark": "listed apart in the source"}}, "data": [{"smiles": "OC[C@H]1OC(n2cnc3c(NN=Cc4ccccn4)ncnc32)[C@H](O)[C@@H]1O", "note": "(some centres unmarked) [I-9]", "values": [{"measurement": "GI50", "setting": "[1]", "value": 1500, "unit": "nM"}, {"measurement": "GI50", "setting": "[2]", "value": 1200, "unit": "nM"}, {"measurement": "GI50", "setting": "[3]", "value": 2000, "unit": "nM"}, {"measurement": "GI50", "setting": "[4]", "value": "< 1000", "unit": "nM"}, {"measurement": "GI50", "setting": "[5]", "value": 400, "unit": "nM"}, {"measurement": "GI50", "setting": "[6]", "value": 2000, "unit": "nM"}, {"measurement": "GI50", "setting": "[7]", "value": 116, "unit": "nM"}, {"measurement": "GI50", "setting": "[8]", "value": 269, "unit": "nM"}, {"measurement": "GI50", "setting": "[9]", "value": 251, "unit": "nM"}, {"measurement": "GI50", "setting": "[10]", "value": 271, "unit": "nM"}, {"measurement": "GI50", "setting": "[11]", "value": 347, "unit": "nM"}, {"measurement": "GI50", "setting": "[12]", "value": 196, "unit": "nM"}, {"measurement": "GI50", "setting": "[13]", "value": 219, "unit": "nM"}, {"measurement": "GI50", "setting": "[14]", "value": 137, "unit": "nM"}, {"measurement": "GI50", "setting": "[15]", "value": 250, "unit": "nM"}, {"measurement": "cells found to be the most sensitive", "setting": "[16]; NCI screen, by cancer type", "value": "leukemia, prostate, ovarian, and renal cancer cell lines"}, {"measurement": "mean GI50 (MG-MID)", "setting": "[16]; average of the GI50 values for all the cell lines tested, drug concentrations 10^−4-10^−8 M, read-out: MG-MID (mean graph midpoint)", "value": 228, "unit": "nM"}, {"measurement": "GI50", "setting": "[17]", "value": 1000, "unit": "nM"}, {"measurement": "GI50", "setting": "[18]", "value": 1500, "unit": "nM"}, {"measurement": "phosphorylation of ERK (time)", "setting": "[19]; Western blot pERK", "value": 4, "unit": "h"}, {"measurement": "phosphorylation of JNK", "setting": "[19]; Western blot pJNK (results not shown)", "value": "without phosphorylation of JNK"}, {"measurement": "MEK activation (time)", "setting": "[19]; Western blot pMEK", "value": 2, "unit": "h"}, {"measurement": "activation of cjun (time)", "setting": "[19]; Western blot pcjun", "value": 6, "unit": "h"}, {"measurement": "Caspase activation", "setting": "[19]; initial studies", "value": "Caspase-3 activation through Caspase-6 and not through Caspase-8"}, {"measurement": "Apoptosis (Annexin-V, FACS analysis)", "setting": "[20]", "value": "Apoptosis was also established"}, {"measurement": "Activation of NFkB (p50)", "setting": "[21]", "value": "observed"}]}]}
